Values after ≈ are worked out from the molar mass of the structure shown.
Key:
[1] = test system: prostaglandin E2; assay: Antagonistic activity to the contracturant effect of prostaglandin E2 (isolated rat colon, method of Magnus); conditions: Krebs 37° C, product added 30 seconds before PGE2 (5 to 10 ng/ml), 50% inhibition of contractions
Description: A. Antagonistic activity to the contracturant effect of prostaglandin E2
The antagonistic effect of the test compounds to the contracturant activity of prostaglandin E2 was determined by the method of Magnus wherein a portion of the colon adjacent to the caecum was removed from a rat and was washed with a Krebs solution at 37° C. The colon was then suspended in a bath of oxygenated Krebs liquid kept at 37° C and the contactions of the organ were registered with a collector attached to a Sanborn polygraph. The organ was first standarized with prostaglandin E2 to determine the concentration necessary to obtain a significant contraction (5 to 10 ng/ml). The antagonistic product was added to the bath 30 seconds before the standard dose of PGE2 and the intensity of the contraction was measured. The concentration of product which inhibited by 50% the contractions provoked by PGE2 was determined by the straight line effect-log of the dose and the CI50 is reported in Table I.

[2] = test system: guinea pig ileon; assay: Relaxant activity on the guinea pig ileon; conditions: Cavia porcellus, Tyrode 37° C, concentration suppressing spontaneous contractions and relaxing the organ, read-out: Relaxant action
Description: B. Relaxant Activity on the guinea pig ileon
The relaxant effect of the test compounds was determined on guinea pig ileon using the procedure of Test A above. The terminal portion of the guinea pig ileon was removed and washed with Tyrode solution at 37° C. It was then suspended in an bath of oxygenated Tyrode liquid at 37° C and the contractions were registered on a collector attached to a Sanborn polygraph. The test product was added to bath of the organ with a low volume and the concentration which caused a suppression of spontaneous contractions and relaxed the organ, cuasing a lowering of the line of the base was considered to be relaxant.

[3] = test system: prostaglandin synthetases of lungs of guinea pigs; assay: Inhibitory effect against biosynthesis of prostaglandins from arachidonic acid (Vane); type: biochemical; conditions: guinea pig lung homogenate supernatant, arachidonic acid 10 μg, 30 minutes at 37° C; read-out on isolated rat colon; read-out: CI50 (the source's name)
Description: D. Inhibitory effect against biosynthesis of prostaglandins
Synthesis of prostaglandins starting with arachidonic acid by means of prostaglandin synthetases of lungs of guinea pigs
This test used the procedure of Vane [Nature New-Biology, Vo. 231 (1971), p. 232-235] wherein the lungs of adult guinea pigs (two per series) were rapidly removed and washed with a modified, iced Bucher medium. The lung tissue was homogenized in a Turrax grinder in a minute and the homogenate was centrifuged for 20 minutes to 1200 g. The supernatant was used as a preparation of prostaglandin synthetases.
A solution of arachidonic acid in ethanol at a concentration of 10 mg/ml was diluted with a 0.2% aqueous sodium carbonate solution and was then diluted further with a modified Bucher medium to obtain a final acid concentration of 200 μg/ml. The biosynthesis inhibitors are put into aqueous on dilute alcohol (20% maximum) solutions. Tubes were prepared containing 1 ml of the prostaglandin synthetases preparation, 10 μg of arachidonic acid and 0.1 ml of inhibiting solution or, for the controls, an equal volume of water or dilute alcohol. The tubes were incubated with stirring for 30 minutes at 37° C in aerobic conditions and each test consisted of a tube containing a biosynthesis inhibitor, one biosynthesis control with incubated arachidonic acid and one control with non-incubated arachidonic acid. The latter control permitted a evaluation of amount of natural prostaglandins present in the ground lung and the results obtained with this control must therefore be taken away from the control of biosynthesis and from all the tests. The reactions are stopped by immersion in boiling water until the proteins are coagulated. The dosage of "prostaglandin like" activity was effected biologically on the isolated rat colon suspended in Krebs liquid, mixed to augment the specificity, with antagonists to other contracturant mediators susceptible to interfere. The antagonists were mepyramine, scopolamine, methysergide, phenoxybenzamine and propanolol.
A comparison of the results registered in the presence or absence of a test product permitted the calculation of the percentage of biosynthesis inhibition. The CI50 dose which inhibited by 50% the biosynthesis activity was graphically obtained by straight line representing the percent of inhibition with reference to the incubated controls against the log of the concentration in μg/ml and the results are reported in Table IV.

[4] = test system: mice; assay: Analgesic activity -- stretching provoked by acetic acid (Koster et al); type: in vivo; conditions: Mus musculus, 0.25 h, oral, one half hour before intraperitoneal acetic acid, 15 minute observation, dose reducing stretchings by 50%, read-out: DA50 (the source's name)
Description: C. Analgesic Activity -- stretching provoked by acetic acid
The test procedure was that of Koster et al wherein an interitoneal injection of aqueous acetic acid in a concentration of 1% at a dose of 100 mg/kg caused in mice repeated movements of strectching and twisting which can persist for more than 6 hours. Analgesics prevent or lessen the syndrome. The test products were orally administered one half hour before the acetic acid injection and the mice were fasted from the day before the tests. The stretching were counted for each mouse during a 15 minute observation period beginning right after the acetic acid injection and the analgesic affect was expressed as a percentage of protection with respect to the controls.

| IC50 [3] | Compound | CI50 against PGE2 [1] | minimal effective concentration [2] | ED50 [4] |
| --- | --- | --- | --- | --- |
| – | CCCCC[C@H](O)/C=C/[C@H]1CC[C@@H](O)[C@@H]1C(=O)OCC (relative stereo) [A] | 20 µg/mL (≈ 70.3 µM) | 20 µg/mL | – |
| 376 µM | CCCCC[C@H](O)/C=C/[C@H]1CC[C@H](O)[C@@H]1C(=O)OCC (relative stereo) [B] | – | 20 µg/mL | 100 mg/kg |
| 523 µM | CCCCCCCCCOC(=O)[C@H]1[C@@H](O)CC[C@@H]1/C=C/[C@@H](O)CCCCC (relative stereo) [D] | – | 10 µg/mL | – |
| 54 µM | CCCCC[C@@H](/C=C/[C@H]1CC[C@H](O)[C@@H]1C(=O)OCC)OC1CCCCO1 (relative stereo) [F] | 20 µg/mL (≈ 54.3 µM) | 20 µg/mL | ~100 mg/kg |
| 204 µM | CCCCC[C@@H](/C=C/[C@H]1CC[C@@H](O)[C@@H]1C(=O)OCC)OC1CCCCO1 (relative stereo) [G] | 20 µg/mL (≈ 54.3 µM) | 20 µg/mL | ~100 mg/kg |
| – | CCCCC[C@@H](CC[C@H]1CC[C@H](O)[C@@H]1C(=O)OCC)OC1CCCCO1 (relative stereo) [H] | – | 10 µg/mL | – |
| – | CCCCC[C@@H](/C=C/[C@H]1CC[C@H](O)[C@@H]1C(=O)OC)OC1CCCCO1 (relative stereo) [I] | – | 5 µg/mL | – |
| – | CCCCC[C@@H](/C=C/[C@H]1CC[C@H](O)[C@@H]1C(=O)OCCC)OC1CCCCO1 (relative stereo) [J] | – | 10 µg/mL | – |
| – | CCCCC[C@@H](CC[C@H]1CC[C@@H](O)[C@@H]1C(=O)OCC)OC1CCCCO1 (relative stereo) [K] | – | 5 µg/mL | – |
| – | CCCCC[C@@H](/C=C/[C@H]1CC[C@@H](O)[C@@H]1C(=O)OC)OC1CCCCO1 (relative stereo) [L] | – | 5 µg/mL | – |
| 652 µM | CCCCC[C@@H](/C=C/[C@H]1CC[C@@H](O)[C@@H]1C(=O)OCCC)OC1CCCCO1 (relative stereo) [M] | – | 5 µg/mL | – |
| – | C#C[C@@](O)(/C=C/[C@H]1CC[C@H](O)[C@@H]1C(=O)OCC)CCCCC (relative stereo) [N] | – | 5 µg/mL | – |
| 229 µM | C#C[C@@](/C=C/[C@H]1CC[C@H](O)[C@@H]1C(=O)OCC)(CCCCC)OC1CCCCO1 (relative stereo) [O] | – | – | – |
| 382 µM | C#C[C@@](/C=C/[C@H]1CC[C@@H](O)[C@@H]1C(=O)OCC)(CCCCC)OC1CCCCO1 (relative stereo) [P] | – | 5 µg/mL | ~100 mg/kg |
| – | C#C[C@@](/C=C/[C@H]1CC[C@H](O)[C@@H]1C(=O)OCC)(CCCCC)OC1CCCCO1 (relative stereo) [Product O, Ethyl (1RS, 2SR, 5RS, 3'SR) (1'E) 2-hydroxy-5-(3'-α-tetrahydropyranyloxy-3'-ethynyl-1'-octenyl)-cyclopentanecarboxylate] | – | 10 µg/mL | – |
| – | CCCCC[C@@H](/C=C/[C@H]1CC[C@@H](O)[C@@H]1C(=O)CCC)OC1CCCCO1 (relative stereo) [Q] | – | 10 µg/mL | – |
| 542 µM | CCCCC[C@@H](/C=C/[C@H]1CC[C@@H](O)[C@H]1C(=O)OCC)OC1CCCCO1 (relative stereo) [R] | – | – | – |
| 628 µM | CCCCC[C@@H](/C=C/[C@H]1CC[C@H](O)[C@@H]1C(=O)CCC)OC1CCCCO1 (relative stereo) [S] | – | – | – |
| 503 µM | CCCCCC(C)(O)/C=C/[C@H]1CC[C@@H](O)[C@@H]1C(=O)OCC (some centres unmarked) [C] | – | 1 µg/mL | – |
| 604 µM | CCCCCC(C)(O)/C=C/[C@H]1CC[C@H](O)[C@@H]1C(=O)OCC (some centres unmarked) [E] | – | 5 µg/mL | – |
